Experimental findings from patent US9801381B2, “Form of rimsulfuron, a process for its preparation and use of the same” (ROTAM AGROCHEM INTERNATIONAL COMPANY LIMITED, priority 2015, dated 2017) are described below.

The structures appear in SMILES notation. Where two headings read alike, the source gives them in different places.

Data set [1] in a line: Cleanout test (rimsulfuron residue in polyethylene bottles after rinsing, extracted with acetonitrile). Format: physicochemical. The following applies: for Cleanout rating, % (concentration of rimsulfuron herbicide in the acetonitrile solution): dispersed in tap water, stood overnight, lower rating = more effective cleanout. Here is the method:
The cleanout test was conducted by dispersing in water a sample to produce a concentration that is normally used when applying the herbicide: 25% rimsulfuron. The sample was added to tap water (300 mL) in a 400 mL beaker and magnetically stirred for 2 minutes. The mixture was then stirred for 2 minutes, whereupon the resulting dispersion was dispensed in three 100 mL aliquots to 4-oz (118 mL) polyethylene bottles. The bottles were capped, inverted twice and allowed to stand overnight.
After standing overnight, each individual bottle was inverted twice and the liquid contents were then poured out. Tap water (10 mL) was added and the bottle was inverted until all sediment was re-suspended, whereupon the contents were poured out. Tap water (100 mL) was added and the bottle was inverted twice and then allowed to stand undisturbed for 10 minutes. The bottle was inverted twice more and the contents were poured out. Acetonitrile (10 mL) was added to the bottle to extract any remaining material. The acetonitrile solution was analyzed by reversed-phase liquid chromatography with UV detection. The cleanout rating (the concentration of rimsulfuron herbicide in the acetonitrile solution) is reported in % in Table 6 below.

Data set [2] is classed as physicochemical. The following applies: pH 7 buffer, test temperature e.g. 20° C.
The format of data set [3] is physicochemical. Here is the method: A stock pH 7 buffer solution was prepared by adding aqueous sodium hydroxide solution (0.1 M, 145 mL) to aqueous potassium dihydrogen phosphate solution (0.1 M, 250 mL), and then adding sufficient distilled water to adjust the final volume to 500 mL. At least 1 time and up to about 5 times the amount of rimsulfruon needed for saturation was added to a mixing vessel containing stock buffer solution at the test temperature (e.g., 20° C.). The mixture was magnetically stirred in the dark while being maintained at the test temperature. Samples were periodically removed for analysis. The samples were centrifuged using a high speed, temperature-controlled centrifuge at the test temperature for about 20 minutes at ≧12000 G to remove suspended particles. An aliquot of each supernatant was taken for analysis. The concentration of rimsulfuron in the supernatant was determined by a high pressure liquid chromatography (HPLC) with a reversed phase chromatography column and UV detection. The method should include development of best-fit calibration curves based on at least three standards using linear regression analysis Samples were successively withdrawn from the mixing vessel and analyzed until three successive samples show little or no variation in concentration. The test is preferably replicated to ensure accuracy.

[4] abbreviates: OD formulation, original concentration 40%.
[5] abbreviates: SG formulation, original concentration 25%.
Setting [6] is: WG formulation, original concentration 25%.

Regarding `CCS(=O)(=O)c1cccnc1S(=O)(=O)NC(=O)Nc1nc(OC)cc(OC)n1` [Amorphous Rimsulfuron, prepared in Example 1] [1-(4,6-dimethoxypyrimidin-2-yl)-3-(3-ethylsulfonyl-2-pyridylsulfonyl)urea, reference compound], the “Cleanout rating, % (concentration of rimsulfuron herbicide in the acetonitrile solution)” value is on record as 26% in data set [1] (OD formulation), 10% in data set [1] (SG formulation) and 13% in data set [1] (WG formulation). Moreover, the “Concentration measured by HPLC after treatment, %” value in data set [2] (setting [4]) was determined as 14%; in data set [2] (setting [5]), 15%; in data set [2] (setting [6]) it was 12%.

`CCS(=O)(=O)c1cccnc1S(=O)(=O)NC(=O)Nc1nc(OC)cc(OC)n1` [Rimsulfuron, crystal form A, 98%, prepared in Example 2] [1-(4,6-dimethoxypyrimidin-2-yl)-3-(3-ethylsulfonyl-2-pyridylsulfonyl)urea]: the “Cleanout rating, % (concentration of rimsulfuron herbicide in the acetonitrile solution)” value is listed as 5% in data set [1] (OD formulation), 0.1% in data set [1] (SG formulation) and 2% in data set [1] (WG formulation). Besides, the “Cleanout properties compared with the known amorphous rimsulfuron product (in words)” value in data set [1] (summary of Table 6) is “markedly superior cleanout properties”. The “Solubility compared with amorphous rimsulfuron (in words)” value in data set [3] was “significant increase in its solubility”. Further, the entries for the “Concentration measured by HPLC after treatment, %” value in data set [2] (setting [4]), in data set [2] (setting [5]) and in data set [2] (setting [6]) were 35%, 24.9% and 23%, respectively.
